Test results taken from patent publication US4804743A, “Proline-containing renin inhibitors” (Warner-Lambert Copmany, priority 1987, dated 1989).

Biological target: T1, renin (Homo sapiens, UniProt P00797)
T1 sequence (P00797 67-406): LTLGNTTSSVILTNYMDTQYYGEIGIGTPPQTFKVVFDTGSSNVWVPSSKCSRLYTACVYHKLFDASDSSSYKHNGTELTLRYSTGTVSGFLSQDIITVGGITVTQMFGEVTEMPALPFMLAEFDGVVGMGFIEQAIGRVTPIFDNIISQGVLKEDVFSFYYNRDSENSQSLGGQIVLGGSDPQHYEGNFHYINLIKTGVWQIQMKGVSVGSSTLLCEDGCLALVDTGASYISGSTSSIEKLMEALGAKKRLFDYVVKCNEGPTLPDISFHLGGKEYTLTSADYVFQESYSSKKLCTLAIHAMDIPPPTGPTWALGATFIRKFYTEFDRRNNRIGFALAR
Experiment: in vitro renin inhibitory activity, radioimmunoassay for angiotensin I
Format: biochemical
Conditions: renin incubated two hours at 37° with substrate angiotensinogen; angiotensin I measured by radioimmunoassay
Protocol: The effectiveness of the aforementioned compounds is determined by a test for in vitro renin inhibitory activity. This activity is determined by a standard radioimmunoassay for angiotensin I. In this assay the enzyme, renin, incubated for two hours at 37° in the presence of a substrate, angiotensinogen, generates the product, angiotensin I. Test compounds are added to the incubation mixture. Relative activity is reported as the IC50, which is the molar concentration of test compound causing a 50% inhibition of the renin activity.

IC50: 1100 nM
Substance: BOC-PHE-LEU-STA-GLN-PRO-OCH3 [Example 8]
